# Experimental data from patent US8299111B2, “Compounds which modulate the CB2 receptor” (Boehringer Ingelheim International GmbH, priority 2006, dated 2012).
# Molecular target: T1, human CB2R (Homo sapiens, UniProt P34972)
# T1 construct: host or cells: CHO cells
# Experiment: CB2R mediated modulation of cAMP synthesis
# Assay type: cell-based
# Details: found through the use of the above described assays (binding and cAMP); CHO cells expressing human CB2R, forskolin-stimulated cAMP
# Method in brief: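 CHO cells expressing human CB2R were treated for 30 min at 37 °C with compound in buffer containing 1 mM IBMX, 0.25% BSA and 10 uM forskolin. cAMP was measured after lysis. EC50 is the concentration giving 50% inhibition of forskolin-stimulated cAMP, scaled to the level set by 1 uM CP55940, fitted by four-parameter logistic.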
# T1 sequence (P34972 whole entry): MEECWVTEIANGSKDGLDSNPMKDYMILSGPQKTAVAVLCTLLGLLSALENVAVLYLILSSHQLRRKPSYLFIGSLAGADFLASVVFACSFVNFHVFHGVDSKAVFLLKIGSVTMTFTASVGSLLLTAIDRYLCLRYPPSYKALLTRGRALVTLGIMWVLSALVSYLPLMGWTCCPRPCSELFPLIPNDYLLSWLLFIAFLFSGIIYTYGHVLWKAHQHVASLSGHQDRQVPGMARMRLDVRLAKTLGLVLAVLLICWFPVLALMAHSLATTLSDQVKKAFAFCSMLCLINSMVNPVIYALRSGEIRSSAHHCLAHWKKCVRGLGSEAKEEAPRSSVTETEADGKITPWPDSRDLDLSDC
row,agonistic activity,Structure (SMILES)
1,agonistic activity,CC(C)(C(=O)Nc1ccc(C(F)(F)F)cn1)S(=O)(=O)c1ccccc1 [2-Benzenesulfonyl-2-methyl-N-(5-trifluoromethyl-pyridin-2-yl)-propionamide]
2,agonistic activity,CC(C)(C(=O)Nc1cccc(C(F)(F)F)n1)S(=O)(=O)c1ccccc1 [2-Benzenesulfonyl-2-methyl-N-(6-trifluoromethyl-pyridin-2-yl)-propionamide]
3,agonistic activity,CC(C)(C)c1csc(NC(=O)C(C)(C)S(=O)(=O)c2ccccc2)n1 [2-Benzenesulfonyl-N-(4-tert-butyl-thiazol-2-yl)-2-methyl-propionamide]
4,agonistic activity,CCc1sc(NC(=O)C(C)(C)S(=O)(=O)c2ccccc2)nc1-c1ccccc1 [2-Benzenesulfonyl-N-(5-ethyl-4-phenyl-thiazol-2-yl)-2-methyl-propionamide]
5,agonistic activity,Cn1nc(C(C)(C)C)cc1NC(=O)C(C)(C)S(=O)(=O)c1ccccc1 [2-Benzenesulfonyl-N-(5-tert-butyl-2-methyl-2H-pyrazol-3-yl)-2-methyl-propionamide]
6,agonistic activity,CC(C)(C)c1cc(NC(=O)C(C)(C)S(=O)(=O)c2ccccc2)no1 [2-Benzenesulfonyl-N-(5-tert-butyl-isoxazol-3-yl)-2-methyl-propionamide]
7,agonistic activity,Cc1ccc(S(=O)(=O)C(C)(C)C(=O)Nc2ccc(C(F)(F)F)cn2)cn1 [2-Methyl-2-(6-methyl-pyridine-3-sulfonyl)-N-(5-trifluoromethyl-pyridin-2-yl)-propionamide]
8,agonistic activity,Cc1ccc(S(=O)(=O)C(C)(C)C(=O)Nc2cccc(C(F)(F)F)n2)cn1 [2-Methyl-2-(6-methyl-pyridine-3-sulfonyl)-N-(6-trifluoromethyl-pyridin-2-yl)-propionamide]
9,agonistic activity,CC(C)(C(=O)Nc1ccc(C(F)(F)F)cn1)S(=O)(=O)c1ccc(N2CCOCC2)nc1 [2-Methyl-2-(6-morpholin-4-yl-pyridine-3-sulfonyl)-N-(5-trifluoromethyl-pyridin-2-yl)-propionamide]
10,agonistic activity,CC(C)(C(=O)Nc1cc(C(F)(F)F)ccn1)S(=O)(=O)c1ccc(C(F)(F)F)nc1 [2-Methyl-2-(6-trifluoromethyl-pyridine-3-sulfonyl)-N-(4-trifluoromethyl-pyridin-2-yl)-propionamide]
11,agonistic activity,CC(C)(C(=O)Nc1ccc(C(F)(F)F)cn1)S(=O)(=O)c1ccc(C(F)(F)F)nc1 [2-Methyl-2-(6-trifluoromethyl-pyridine-3-sulfonyl)-N-(5-trifluoromethyl-pyridin-2-yl)-propionamide]
12,agonistic activity,Cc1ccc(S(=O)(=O)C(C)(C)C(=O)Nc2nc(C(F)(F)F)cs2)cc1 [2-Methyl-2-(toluene-4-sulfonyl)-N-(4-trifluoromethyl-thiazol-2-yl)-propionamide]
13,agonistic activity,Cc1ccc(S(=O)(=O)C(C)(C)C(=O)Nc2ccc(C(F)(F)F)cn2)cc1 [2-Methyl-2-(toluene-4-sulfonyl)-N-(5-trifluoromethyl-pyridin-2-yl)-propionamide]
14,agonistic activity,Cc1ccc(S(=O)(=O)C(C)(C)C(=O)Nc2cccc(C(F)(F)F)n2)cc1 [2-Methyl-2-(toluene-4-sulfonyl)-N-(6-trifluoromethyl-pyridin-2-yl)-propionamide]
15,agonistic activity,Cn1nc(-c2ccccc2)cc1NC(=O)C(C)(C)S(=O)(=O)c1ccc(C(F)(F)F)nc1 [2-Methyl-N-(2-methyl-5-phenyl-2H-pyrazol-3-yl)-2-(6-trifluoromethyl-pyridine-3-sulfonyl)-propionamide]
16,agonistic activity,Cc1ccc(S(=O)(=O)C(C)(C)C(=O)Nc2cc(-c3ccccc3)nn2C)cc1 [2-Methyl-N-(2-methyl-5-phenyl-2H-pyrazol-3-yl)-2-(toluene-4-sulfonyl)-propionamide]
17,agonistic activity,Cc1cnc(NC(=O)C(C)(C)S(=O)(=O)c2ccc(C(F)(F)F)cc2)s1 [2-Methyl-N-(5-methyl-thiazol-2-yl)-2-(4-trifluoromethyl-benzenesulfonyl)-propionamide]

row,agonistic activity,Structure (SMILES)
1,agonistic activity,Cc1cnc(NC(=O)C(C)(C)S(=O)(=O)c2ccc(C(F)(F)F)cn2)s1 [2-Methyl-N-(5-methyl-thiazol-2-yl)-2-(5-trifluoromethyl-pyridine-2-sulfonyl)-propionamide]
2,agonistic activity,"CCCc1cc(NC(=O)C(C)(C)S(=O)(=O)c2ccc(F)cc2F)on1 [2-[(2,4-difluorophenyl)sulfonyl]-2-methyl-N-(3-propylisoxazol-5-yl)propanamide]"
3,agonistic activity,"CC(C)(C(=O)Nc1cc(C(F)(F)F)ccn1)S(=O)(=O)c1ccc(F)cc1F [2-[(2,4-difluorophenyl)sulfonyl]-2-methyl-N-[4-(trifluoromethyl)pyridin-2-yl]propanamide]"
4,agonistic activity,"CC(C)(C(=O)Nc1ccc(C(F)(F)F)cn1)S(=O)(=O)c1ccc(F)cc1F [2-[(2,4-difluorophenyl)sulfonyl]-2-methyl-N-[5-(trifluoromethyl)pyridin-2-yl]propanamide]"
5,agonistic activity,"CC(C)(C(=O)Nc1cccc(C(F)(F)F)n1)S(=O)(=O)c1ccc(F)cc1F [2-[(2,4-difluorophenyl)sulfonyl]-2-methyl-N-[6-(trifluoromethyl)pyridin-2-yl]propanamide]"
6,agonistic activity,"CCc1sc(NC(=O)C(C)(C)S(=O)(=O)c2ccc(F)cc2F)nc1-c1ccccc1 [2-[(2,4-difluorophenyl)sulfonyl]-N-(5-ethyl-4-phenyl-1,3-thiazol-2-yl)-2-methylpropanamide]"
7,agonistic activity,CC(C)(C(=O)Nc1cccc2ccccc12)S(=O)(=O)c1ccc(Cl)cc1F [2-[(4-chloro-2-fluorophenyl)sulfonyl]-2-methyl-N-1-naphthylpropanamide]
8,agonistic activity,CCCc1cc(NC(=O)C(C)(C)S(=O)(=O)c2ccc(Cl)cc2F)on1 [2-[(4-chloro-2-fluorophenyl)sulfonyl]-2-methyl-N-(3-propylisoxazol-5-yl)propanamide]
9,agonistic activity,"CC(C)(C(=O)Nc1nc(-c2ccccc2)cs1)S(=O)(=O)c1ccc(Cl)cc1F [2-[(4-chloro-2-fluorophenyl)sulfonyl]-2-methyl-N-(4-phenyl-1,3-thiazol-2-yl)propanamide]"
10,agonistic activity,"Cc1sc(NC(=O)C(C)(C)S(=O)(=O)c2ccc(Cl)cc2F)nc1-c1ccccc1 [2-[(4-chloro-2-fluorophenyl)sulfonyl]-2-methyl-N-(5-methyl-4-phenyl-1,3-thiazol-2-yl)propanamide]"
11,agonistic activity,Cc1ccc(NC(=O)C(C)(C)S(=O)(=O)c2ccc(Cl)cc2F)nc1 [2-[(4-chloro-2-fluorophenyl)sulfonyl]-2-methyl-N-(5-methylpyridin-2-yl)propanamide]
12,agonistic activity,"CC(C)(C(=O)Nc1nsc(-c2ccccc2)n1)S(=O)(=O)c1ccc(Cl)cc1F [2-[(4-chloro-2-fluorophenyl)sulfonyl]-2-methyl-N-(5-phenyl-1,2,4-thiadiazol-3-yl)propanamide]"
13,agonistic activity,CC(C)(C(=O)Nc1cccc(C(F)(F)F)c1)S(=O)(=O)c1ccc(Cl)cc1F [2-[(4-chloro-2-fluorophenyl)sulfonyl]-2-methyl-N-[3-(trifluoromethyl)phenyl]propanamide]
14,agonistic activity,"CC(C)(C(=O)Nc1nc(C(F)(F)F)cs1)S(=O)(=O)c1ccc(Cl)cc1F [2-[(4-chloro-2-fluorophenyl)sulfonyl]-2-methyl-N-[4-(trifluoromethyl)-1,3-thiazol-2-yl]propanamide]"
15,agonistic activity,CC(C)(C(=O)Nc1ccc(C(F)(F)F)cc1)S(=O)(=O)c1ccc(Cl)cc1F [2-[(4-chloro-2-fluorophenyl)sulfonyl]-2-methyl-N-[4-(trifluoromethyl)phenyl]propanamide]
16,agonistic activity,CC(C)(C(=O)Nc1cnc2ccccc2c1)S(=O)(=O)c1ccc(Cl)cc1F [2-[(4-chloro-2-fluorophenyl)sulfonyl]-2-methyl-N-quinolin-3-ylpropanamide]

row,Structure (SMILES),agonistic activity
1,Cc1nc(NC(=O)C(C)(C)S(=O)(=O)c2ccccc2)sc1C(C)(C)C [2-Benzenesulfonyl-N-(5-tert-butyl-4-methyl-thiazol-2-yl)-2-methyl-propionamide],agonistic activity
2,CC(C)(C(=O)Nc1nc(-c2ccc(Cl)cc2)cs1)S(=O)(=O)c1ccccc1 [2-Benzenesulfonyl-N-[4-(4-chloro-phenyl)-thiazol-2-yl]-2-methyl-propionamide],agonistic activity
3,CC(C)(C(=O)Nc1ccc(C(F)(F)F)cn1)S(=O)(=O)c1ccc(C(F)(F)F)cc1 [2-Methyl-2-(4-trifluoromethyl-benzenesulfonyl)-N-(5-trifluoromethyl-pyridin-2-yl)-propionamide],agonistic activity
4,CC(C)(C(=O)Nc1cccnc1)S(=O)(=O)c1ccc(C(F)(F)F)cc1 [2-Methyl-N-pyridin-3-yl-2-(4-trifluoromethyl-benzenesulfonyl)-propionamide],agonistic activity
5,"CC(C)(C)Cc1cc(NC(=O)C(C)(C)S(=O)(=O)c2ccc(F)cc2F)on1 [2-[(2,4-difluorophenyl)sulfonyl]-N-[3-(2,2-dimethylpropyl)isoxazol-5-yl]-2-methylpropanamide]",agonistic activity
6,CC(C)(C(=O)Nc1ccc2ccccc2n1)S(=O)(=O)c1ccc(Cl)cc1F [2-[(4-chloro-2-fluorophenyl)sulfonyl]-2-methyl-N-quinolin-2-ylpropanamide],agonistic activity
